From ChEMBL document CHEMBL2021833, “Calcitonin gene-related peptide (CGRP) receptor antagonists: pyridine as a replacement for a core amide group” (Bioorg Med Chem Lett, 2012) come the findings set out here.

The target of series [1] is T1, Calcitonin gene-related peptide type 1 receptor (Homo sapiens, UniProt O60894+Q16602). The experiment in a line: Antagonist activity at CGRP receptor in human SK-N-MC cells assessed as inhibition of CGRP-stimulated cAMP production in presence of plasma. In kind it is functional, cell-based.
T1 sequence (Q16602 whole entry, one chain of several): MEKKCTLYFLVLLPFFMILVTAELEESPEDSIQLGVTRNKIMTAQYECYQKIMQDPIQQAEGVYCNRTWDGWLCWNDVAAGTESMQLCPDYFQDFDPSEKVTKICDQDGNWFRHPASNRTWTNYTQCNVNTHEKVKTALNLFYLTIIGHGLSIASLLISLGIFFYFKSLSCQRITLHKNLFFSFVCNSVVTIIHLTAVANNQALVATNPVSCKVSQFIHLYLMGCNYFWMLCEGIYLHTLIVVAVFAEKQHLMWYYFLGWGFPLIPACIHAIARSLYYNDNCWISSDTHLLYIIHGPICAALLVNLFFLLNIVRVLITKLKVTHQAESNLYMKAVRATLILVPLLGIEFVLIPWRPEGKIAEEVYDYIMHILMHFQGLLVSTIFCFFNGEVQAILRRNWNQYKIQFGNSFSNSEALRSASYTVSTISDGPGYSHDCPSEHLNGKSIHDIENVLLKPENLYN
Series [2] is described as follows: Permeability across human Caco2 cells. In kind it is ADME, cell-based. Conditions: Caco-2, read-out: permeability. (In general: Caco-2 cells form a polarised layer with tight junctions and transporters.)
The target in series [3] is T1, Calcitonin gene-related peptide type 1 receptor. The experiment in a line: Displacement of [I125]CGRP from CGRP receptor in human SK-N-MC cell membrane after 2 hrs by gamma or scintillation counting. In kind it is cell membranes.
In series [4] the test system is Plasma. Kind of series: Fraction unbound in po dosed rat plasma. In kind it is ADME, organism-based. Conditions: in vivo.
For series [5], the target named is T1, Calcitonin gene-related peptide type 1 receptor. Kind of series: Antagonist activity at CGRP receptor in human SK-N-MC cells assessed as inhibition of CGRP-stimulated cAMP production. Type of series: functional, cell-based.
Series [6] is described as follows: Oral bioavailability in rat. Type of series: ADME, organism-based. Conditions: in vivo.

Consider `Cc1cc(CC(OC(=O)N2CCC(c3cc4ccccc4[nH]c3=O)CC2)c2cc(C(=O)N(C)C)cc(Cl)n2)cc2cn[nH]c12` (stereo unspecified), for which the Ki in series [1] was 3.3 nM. For the same compound, in series [2], the Papp came out at 5.2 ×10⁻⁶ cm/s. Besides, the half-maximal inhibitory concentration (IC50) is 0.28 nM in series [3] and 0.34 nM in series [5]. The “Cp(f)” value in series [4] is 6%. In addition, in series [6], the bioavailability is 4.5%.

A word on the Ki: it is the equilibrium dissociation constant of an inhibitor or competing ligand from its target. Broadly, the IC50 is the midpoint of a concentration-inhibition curve. Broadly, the bioavailability is dose-corrected exposure relative to a reference, in per cent.
